Assay results: patent US9512125B2, “Substituted pyrazolo[3.4-D] pyrimidines as anti-inflammatory agents” (THE REGENTS OF THE UNIVERSITY OF CALIFORNIA, priority 2004, dated 2016)
Read-outs that look alike come from different tables or passages of the source.

Assays:
Set-up in all cases: species or system human
[1] = system: HUVEC with or without PBMC (3C, 4H, SAG and LPS systems); test: BioMAP inflammation model systems (3C, 4H, SAG, LPS), cell-based ELISA profiling; details: 4 systems (3C, 4H, SAG, LPS); concentration of 5 micromolar; 24 h stimulation
T cell activation = T cell activation inhibition in cell-based (BioMAP) assay
Description: T-cell activation inhibitors may be especially useful in treating the inflammation underlying arthritis, psoriasis, vasculitis, multiple sclerosis, IBD, asthma, atherosclerosis, or other inflammatory disease.
(§1) Human umbilical vein endothelial cells (HUVEC) were cultured as described in Kunkel et al., 2004, FASEB J 18:1279-1281. Peripheral blood mononuclear cells (PBMC) were prepared from buffy coats (Stanford Blood Bank, Stanford, Calif.) by centrifugation over Hisopaque-1077 (Sigma). Four assay systems, 3C, 4H, SAG, and LPS, were used. For the 3C system, HUVEC were cultured for 24 h in microtiter plates (Falcon; BD Biosciences), in the presence of cytokines IL-1β (1 ng/ml), TNF-α (5 ng/ml), and IFN-γ (20 ng/ml). For the 4H system, HUVEC were cultured in the presence of IL-4 (5 ng/ml) and histamine (10 μM). For the SAG system, HUVEC were cultured with PBMC (7.5×10^4) and SAG (20 ng/ml). For the LPS system, HUVEC were cultured with PBMC (7.5×10^4) and LPS (2 ng/ml). Compounds were added 1 h before stimulation and were present during the entire 24-h stimulation period. Cell-based enzyme-linked immunosorbent assay (ELISAs) were carried out as described. (See Kunkel et al., 2004, FASEB J 18:1279-1281.)

monocyte activation = test: Monocyte activation inhibition in cell-based (BioMAP) assay; details: weakly inhibit T cell activation, strongly inhibit monocyte activation, MCP-1 and IL-8 (at least 50%) in a cell-based assay
Description: as §1

[2] = strongly inhibit T cell activation: at least one listed gene product inhibited by at least 50% in a cell-based assay

Row | SMILES | Activity [1] | also measured
1 | Cc1ccc(C)c(Cc2nn(C(C)(C)C)c3ncnc(N)c23)c1 [Compound 1] | + | –
2 | CC(C)(C)n1nc(Cc2cccc(Br)c2)c2c(N)ncnc21 [Compound 2] | + | –
3 | Cc1cc(C)cc(Cc2nn(C(C)(C)C)c3ncnc(N)c23)c1 [Compound 3] | + | –
4 | CC(C)(C)n1nc(Cc2ccc(Cl)c(Cl)c2)c2c(N)ncnc21 [Compound 4] | + | –
5 | Cc1ccc(Cc2nn(C(C)(C)C)c3ncnc(N)c23)cc1C [Compound 5] | + | –
6 | Cc1cccc(Cc2nn(C(C)(C)C)c3ncnc(N)c23)c1C [Compound 6] | active | –
7 | CC(C)(C)n1nc(-c2ccc3ccccc3c2)c2c(N)ncnc21 [Compound 10] | active | T cell activation inhibitor classification (T cell activation; [2]): T cell activation inhibitor
8 | Cc1ccc(-c2nn(C(C)(C)C)c3ncnc(N)c23)cc1 [Compound 13, PP1, reference compound] | – | T cell activation inhibitor classification (T cell activation): T cell activation inhibitor
9 | CC(C)(C)c1ccc(-c2nn(C(C)(C)C)c3ncnc(N)c23)cc1 [Compound 14] | + | –
10 | CC(C)(C)n1nc(-c2ccc3c(c2)OCO3)c2c(N)ncnc21 [Compound 15] | active | T cell activation inhibitor classification (T cell activation; [2]): T cell activation inhibitor
11 | CC(C)(C)n1nc(-c2cccc([N+](=O)[O-])c2)c2c(N)ncnc21 [Compound 16] | + | –
12 | CC(C)(C)n1nc(-c2ccc([N+](=O)[O-])cc2)c2c(N)ncnc21 [Compound 18] | + | –
13 | CC(C)(C)n1nc(-c2cccc(OCc3c(Cl)cccc3Cl)c2)c2c(N)ncnc21 [Compound 20] | + | –
14 | CC(C)(C)n1nc(-c2cccc(OCc3ccccc3)c2)c2c(N)ncnc21 [Compound 21] | + | –
15 | CC(C)(C)n1nc(-c2cccc(Oc3ccccc3)c2)c2c(N)ncnc21 [Compound 22] | active | –
16 | CC(C)(C)n1nc(Cc2ccc(Cl)cc2)c2c(N)ncnc21 [Compound 23] | + | –
17 | CC(C)(C)n1nc(Cc2cccc(O)c2)c2c(N)ncnc21 [Compound 24] | + | –
18 | CC(C)(C)n1nc(Cc2ccc(O)cc2)c2c(N)ncnc21 [Compound 25] | + | –
19 | CC(C)(C)n1nc(Cc2ccccc2O)c2c(N)ncnc21 [Compound 26] | + | –
20 | COc1ccc(Cc2nn(C(C)(C)C)c3ncnc(N)c23)cc1 [Compound 27] | + | –
21 | COc1ccccc1Cc1nn(C(C)(C)C)c2ncnc(N)c12 [Compound 28] | + | –
22 | CC(C)(C)n1nc(CCc2ccccc2)c2c(N)ncnc21 [Compound 29] | + | –
23 | Cc1ccccc1Cc1nn(C(C)(C)C)c2ncnc(N)c12 [Compound 31] | active | monocyte activation inhibitor classification (monocyte activation): monocyte activation inhibitor
24 | Cc1cccc(Cc2nn(C(C)(C)C)c3ncnc(N)c23)c1 [Compound 32] | + | –
25 | Cc1ccc(Cc2nn(C(C)(C)C)c3ncnc(N)c23)cc1 [Compound 33] | + | –
26 | CC(c1ccccc1)c1nn(C(C)(C)C)c2ncnc(N)c12 (stereo not drawn) [Compound 34] | + | –

Row | SMILES | Activity [1] | also measured
27 | CC(C)(C)n1nc(CC2CCCC2)c2c(N)ncnc21 [Compound 35] | + | –
28 | CC(C)(C)n1nc(Cc2ccccc2)c2c(N)ncnc21 [Compound 36] | active | monocyte activation inhibitor classification (monocyte activation): monocyte activation inhibitor
29 | CC(C)(C)n1nc(-c2ccccc2Cl)c2c(N)ncnc21 [Compound 37] | + | –
30 | CC(C)(C)n1nc(C2CCCC2)c2c(N)ncnc21 [Compound 38] | + | –
31 | Cc1cccc(-c2nn(C(C)(C)C)c3ncnc(N)c23)c1 [Compound 39] | active | –
32 | CC(C)(C)n1nc(-c2ccccc2OCc2ccccc2)c2c(N)ncnc21 [Compound 40] | + | –
33 | COC(=O)Cn1nc(Cc2cccc3ccccc23)c2c(N)ncnc21 [Compound 42] | + | –
34 | CC(C)Cc1n[nH]c2ncnc(N)c12 [Compound 44] | + | –
35 | Nc1ncnc2[nH]nc(Cc3ccccc3)c12 [Compound 45] | + | –
36 | Cc1n[nH]c2ncnc(N)c12 [Compound 46] | + | –
37 | Nc1ncnc2[nH]nc(-c3ccc4ccccc4c3)c12 [Compound 47] | active | –
38 | Nc1ncnc2c1c(-c1ccccc1)nn2-c1ccccc1 [Compound 49] | + | –
39 | CC(C)n1cc(-c2cccc(O)c2)c2c(N)ncnc21 [Compound 50] | active | –
40 | COCCn1nc(-c2ccccc2)c2c(N)ncnc21 [Compound 51] | + | –
41 | COCCn1nc(-c2cccc(O)c2)c2c(N)ncnc21 [Compound 52] | active | –
42 | CC(C)n1cc(-c2cccc(O)c2)c2c(NCc3ccccc3)ncnc21 [Compound 53] | active | –
43 | CNc1ncnc2c1c(-c1cccc(O)c1)cn2C(C)C [Compound 55] | + | –
44 | CNc1ncnc2c1c(-c1cccc(N)c1)nn2C(C)C [Compound 56] | + | –
45 | Clc1ncnc2c1c(-c1ccccc1)nn2Cc1ccccc1 [Compound 57] | + | –
46 | Cn1nc(Cc2ccccc2Br)c2c(N)ncnc21 [Compound 58] | + | –
47 | CC(C)(C)n1nc(Cc2ccccc2Br)c2c(N)ncnc21 [Compound 59] | active | monocyte activation inhibitor classification (monocyte activation): monocyte activation inhibitor
48 | CC(C)(C)n1nc(Cc2c(Cl)cccc2Cl)c2c(N)ncnc21 [Compound 60] | active | –
49 | Cn1nc(Cc2ccccc2Cl)c2c(N)ncnc21 [Compound 61] | + | –
50 | CC(C)n1nc(Cc2ccccc2Cl)c2c(N)ncnc21 [Compound 62] | active | monocyte activation inhibitor classification (monocyte activation): monocyte activation inhibitor
51 | Nc1ncnc2c1c(Cc1ccccc1Cl)nn2C1CCCC1 [Compound 63] | active | monocyte activation inhibitor classification (monocyte activation): monocyte activation inhibitor
52 | CC(C)(C)n1nc(Cc2ccccc2F)c2c(N)ncnc21 [Compound 64] | active | monocyte activation inhibitor classification (monocyte activation): monocyte activation inhibitor

Row | SMILES | Activity [1] | also measured
53 | CC(C)(C)n1nc(Cc2ccccc2C(F)(F)F)c2c(N)ncnc21 [Compound 65] | active | monocyte activation inhibitor classification (monocyte activation): monocyte activation inhibitor
54 | Cc1sccc1Cc1n[nH]c2ncnc(N)c12 [Compound 66] | active | –
55 | Cc1sccc1Cc1nn(C(C)(C)C)c2ncnc(N)c12 [Compound 67] | active | –
56 | CC(C)(C)n1nc(Cc2ccc(Cl)cc2Cl)c2c(N)ncnc21 [Compound 68] | + | –
57 | CC(C)(C)n1nc(Cc2ccc(F)cc2Cl)c2c(N)ncnc21 [Compound 69] | + | –
58 | CCOCCn1nc(Cc2ccccc2Cl)c2c(N)ncnc21 [Compound 70] | + | –
59 | CC(C)(C)Cn1nc(Cc2ccccc2Cl)c2c(N)ncnc21 [Compound 72] | active | monocyte activation inhibitor classification (monocyte activation): monocyte activation inhibitor
60 | COC(=O)CCCn1nc(Cc2ccccc2Cl)c2c(N)ncnc21 [Compound 73] | + | –
61 | Nc1ncnc2c1c(Cc1ccccc1Cl)nn2CCCCO [Compound 74] | + | –
62 | Nc1ncnc2c1c(Cc1ccccc1Cl)nn2C1CCC(O)CC1 (stereo not drawn) [Compound 75] | + | –
63 | CNc1ncnc2c1c(Cc1ccccc1Cl)nn2C(C)(C)C [Compound 76] | active | monocyte activation inhibitor classification (monocyte activation): monocyte activation inhibitor
64 | CC(C)(C)n1nc(C2(c3ccccc3Cl)CC2)c2c(N)ncnc21 [Compound 77] | active | –
65 | CC(C)(C)n1nc(Cc2ccc(F)cc2F)c2c(N)ncnc21 [Compound 78] | active | –
66 | CC(C)(C)n1nc(Cc2cc(F)ccc2F)c2c(N)ncnc21 [Compound 79] | active | –
67 | CN(C)c1ncnc2c1c(Cc1ccccc1Cl)nn2C(C)(C)C [Compound 80] | active | –
68 | CC(C)(C)n1nc(Cc2c(F)cccc2F)c2c(N)ncnc21 [Compound 81] | active | –
69 | CC(C)(C)n1nc(Cc2cccc(F)c2F)c2c(N)ncnc21 [Compound 82] | active | –
70 | CCCn1nc(Cc2ccccc2Cl)c2c(N)ncnc21 [Compound 83] | active | –
71 | CCCCCn1nc(Cc2ccccc2Cl)c2c(N)ncnc21 [Compound 84] | active | –
72 | CCC(C)CCn1nc(Cc2ccccc2Cl)c2c(N)ncnc21 (stereo not drawn) [Compound 85] | active | –
73 | CC(C)(C)n1nc(-c2cc3ccccc3s2)c2c(N)ncnc21 [Compound 86] | active | –
74 | CCCCCCn1nc(Cc2ccccc2Cl)c2c(N)ncnc21 [Compound 87] | active | –
75 | CC(C)(C)n1nc(-c2ccc(-c3ccccc3)cc2)c2c(N)ncnc21 [Compound 88] | active | –
76 | CCCCn1nc(Cc2ccccc2Cl)c2c(N)ncnc21 [Compound 89] | active | –
